# Data: patent EP0193189A1, “Novel compound, its production and insecticidal and acaricidal composition containing it as an active ingredient” (SUMITOMO CHEMICAL COMPANY, LIMITED, priority 1985, dated 1986)
# Test system: resistant strain of green rice leafhopper (Nephotetix cincticeps)
# Assay: Test Example 3: rice seedling dip test, resistant green rice leafhopper
# Format: in vivo
# Details: Nephotettix cincticeps, 24 h, read-out: LC50 value (ppm), rice seedlings dipped 1 minute; adults of resistant strain; after one day
# Procedure: The emulsifiable concentrates of the following present compounds and control compounds obtained according to Formulation example 2 were each diluted with water to a prescribed concentration, and rice seedlings (about 12 cm in length) were dipped for 1 minute in the resulting aqueous dilute solutions. After air-drying, the seedlings were placed in test tube, and 10 adults of a resistant strain of green rice leafhopper (Nephotetix cincticeps) were liberated in the tube. After one day, the dead and alive of the adults were examined to obtain LC50 (50% lethal concentration)(two replications).
row,Compound,LC50 [µg/mL]
1,"CCOC(=O)CC(SP(=S)(OC)OC)C(=O)OCC (stereo not drawn) [(D), Malathion, reference compound]",~500
2,"C#CC(C)(CCCc1cccc(Oc2ccccc2)c1)c1ccc(OCC)cc1 (stereo not drawn) [(3), 3-(4-ethoxyphenyl)-3-methyl-6-(3-phenoxyphenyl)-1-hexyne]",18

# Same assay, conditions: Nephotettix cincticeps, 24 h, rice seedlings dipped 1 minute; adults of resistant strain; after one day; read-out: LC50 value (ppm)
row,Compound,LC50 [µg/mL]
1,C#CC(C)(CCCc1ccc(F)c(Oc2ccccc2)c1)c1ccc(CC)cc1 (stereo not drawn) [(39)],21

# Test system: carmine spider mite (Tetranychus cinnabarinus)
# Assay: Test Example 8: carmine spider mite on potted kidney bean, degree of damage
# Format: in vivo
# Set-up: key: -: No damage is observed.; +: Slight damage is observed.; ++: The same damage as in the untreated plot is observed
# Details: 500 ppm spray 10 ml/pot plus 2 ml soil treatment; after 8 days
# Procedure: The female adults of carmine spider mite (Tetranychus cinnabarinus) were put at a rate of 10 adults/leaf on the leaves of potted kidney bean (at the primordial leaf stage) which had elapsed 7 days after sowing, and placed in a constant-temperature room kept at 25°C. After 6 days, the 200-fold aqueous dilute solutions (corresponding to 500 ppm), prepared from the emulsifiable concentrates of the following present compounds and control compounds prepared according to Formulation example 2, were each sprayed at a rate of 10 ml/pot on a turn table. At the same time, the soil in the pot was treated with 2 ml of each aqueous solution. After 8 days, the degree of damage of the plant by the mite was examined.
# Criteria of the effect: • - : No damage is observed. • + : Slight damage is observed. • ++: The same damage as in the untreated plot is observed.
row,Compound,Degree of damage
1,C#CC(C)(CCCc1ccc(F)c(Oc2ccccc2)c1)c1ccc(CC)cc1 (stereo not drawn) [(39)],- ~ +
2,"C#CC(C)(CCCc1cccc(Oc2ccccc2)c1)c1ccc(OCC)cc1 (stereo not drawn) [(3), 3-(4-ethoxyphenyl)-3-methyl-6-(3-phenoxyphenyl)-1-hexyne]",-

# Test system: brown rice planthoppers (Nila^parvata luqens)
# Assay: Test Example 7: spray on potted rice plants, brown rice planthopper, residual effect
# Format: in vivo
# Details: 20 h, read-out: Mortality (%) liberated 4 days after application
# Procedure: The emulsifiable concentrates of the following compounds and control compounds obtained according to Formulation example 2 were each diluted with water one thousand times (corresponding to 100 ppm) and each of thus prepared solutions was sprayed at the rate of 20 ml/2 pots to the rice plant seedlings planted in Wagner pots having a surface area of one ten thousandth are. After air-drying, the treated plants were covered with the iron wire cages, and about 15 adults of brown rice planthoppers (Nila^parvata luqens) were liberated thereto. Further, about 15 adults thereof were also liberated thereto 4 days after the application to examine the residual effects. Twenty hours after each liberation, the dead and alive adults were examined to calculate the mortality.
row,Compound,mortality at 100 ppm [%]
1,"C#CC(C)(CCCc1cccc(Oc2ccccc2)c1)c1ccc(OCC)cc1 (stereo not drawn) [(3), 3-(4-ethoxyphenyl)-3-methyl-6-(3-phenoxyphenyl)-1-hexyne]",95

# Same assay, conditions: 20 h, read-out: Mortality (%) liberated just after air-drying
row,Compound,mortality at 100 ppm [%]
1,"C#CC(C)(CCCc1cccc(Oc2ccccc2)c1)c1ccc(OCC)cc1 (stereo not drawn) [(3), 3-(4-ethoxyphenyl)-3-methyl-6-(3-phenoxyphenyl)-1-hexyne]",100

# Test system: houseflies (Musca domestica) of WHO strains
# Assay: Test Example 6: housefly filter paper and sucrose bait test
# Format: in vivo
# Details: 0.7 ml on filter paper with sucrose bait, adult females, after 48 hours, read-out: LC50 value (ppm)
# Procedure: On the bottom of a polyethylene cup of 5.5 cm- in diameter was placed a piece of filter paper of the same size as the bottom, and 0.7 ml of a test solution, prepared by diluting the emulsifiable concentrates of the following present compounds and control compounds prepared according to Formulation example 2 to a prescribed concentration with water, was added dropwise to the filter paper. Thirty milligrams of sucrose were uniformly placed on the filter paper as bait. Thereafter, 10 adult female houseflies (Musca domestica) of WHO strains were liberated in the cup, which was then covered with a lid. After 48 hours, the dead and alive were examined to obtain LC50 value (50% lethal concentration) (two replications).
row,Compound,LC50 [µg/mL]
1,C#CC(C)(CCCc1ccc(F)c(Oc2ccccc2)c1)c1ccc(CC)cc1 (stereo not drawn) [(39)],17

# Test system: rice stem borer (Chilo suppressalis)
# Assay: Test Example 5: rice stem borer larvae on treated artificial feed
# Format: in vivo
# Details: read-out: LC50 value (ppm)
# Description: The emulsifiable concentrates of the following present compounds and control compounds obtained according to Formulation example 2 were each diluted with water to a prescribed concentration, and one ml each of thus prepared solutions was impregnated into the artificial feeds for rice stem borer (Chilo suppressalis) which had been previously prepared in polyethylene cups of 5.5 cm in diameter, respectively. Ten of the larvae of the 10 days old were liberated thereon. The dead and alive larvae were examined to obtain LC50 value (50% lethal concentration) (two replications).
row,Compound,LC50 [µg/mL]
1,"C#CC(C)(CCCc1cccc(Oc2ccccc2)c1)c1ccc(OCC)cc1 (stereo not drawn) [(3), 3-(4-ethoxyphenyl)-3-methyl-6-(3-phenoxyphenyl)-1-hexyne]",3.6

# Test system: brown rice planthopper (Nila^parvata luqens)
# Assay: Test Example 4: rice seedling dip test, brown rice planthopper
# Format: in vivo
# Details: 24 h, read-out: LC50 value (ppm)
# Procedure: The emulsifiable concentrates of the-following present compounds and control compounds obtained according to Formulation example 2 were each diluted with water to a prescribed concentration, and the rice seedlings (about 12 cm in length) were dipped for 1 minute in the resulting aqueous dilute solutions. After air-drying, the seedlings were placed in a test tube, and 10 adults of brown rice planthopper (Nila^parvata luqens) were liberated in the tube. After one day, the dead and alive of the adults were examined to obtain LC50 value (50% lethal concentration)(two replications).
row,Compound,LC50 [µg/mL]
1,"C#CC(C)(CCCc1cccc(Oc2ccccc2)c1)c1ccc(OCC)cc1 (stereo not drawn) [(3), 3-(4-ethoxyphenyl)-3-methyl-6-(3-phenoxyphenyl)-1-hexyne]",34

# Test system: tobacco cutworms (Spodoptera litura)
# Assay: Test Example 2: tobacco cutworm larvae on treated artificial feed
# Format: in vivo
# Details: Spodoptera litura, 144 h
# Description: The emulsifiable concentrates of the following present compounds obtained according to Formulation example 2 were each diluted with water to obtain respective 667 times dilution aqueous solutions (corresponding to 150 ppm) containing said compounds, respectively. Two ml of thus diluted solutions were impregnated into the artificial feeds (13 g) for tobacco cutworms (Spodoptera litura) and thus prepared feeds were placed in polyethylene cups of 11 cm in diameter, respectively. Ten of the 4th instar larvae were liberated thereon.
# Six days after, the dead and alive of the larvae were examined to calculate the mortality (two replications).
row,Compound,mortality at 150 ppm [%]
1,"C#CC(C)(CCCc1cccc(Oc2ccccc2)c1)c1ccc(OCC)cc1 (stereo not drawn) [(3), 3-(4-ethoxyphenyl)-3-methyl-6-(3-phenoxyphenyl)-1-hexyne]",100

# Same assay, conditions: Spodoptera litura, 144 h; 150 ppm solution, 2 ml in 13 g artificial feed; 4th instar larvae; six days after; read-out: Mortality (%)
row,Compound,mortality at 150 ppm [%]
1,C#CC(C)(CCCc1ccc(F)c(Oc2ccccc2)c1)c1ccc(CC)cc1 (stereo not drawn) [(39)],100

# Test system: common mosquito (Culex pipiens pallens)
# Assay: Test Example 1: common mosquito larvae in diluted emulsifiable concentrate, mortality and emergence inhibition
# Format: in vivo
# Details: Culex pipiens, 24 h
# Procedure: The emulsifiable concentrates of the following present compounds obtained according to Formulation example 2 were each diluted with water so as to obtain respective aqueous solutions containing 3.5 ppm of said compounds, respectively. One hundred ml of thus diluted aqueous solutions were poured into respective polyethylene cups of 180 ml volume, and 20 of the last instar larvae of common mosquito (Culex pipiens pallens) were liberated thereto. After one day, the dead or alive of the larvae were examined.
# Thereafter, the feed was added to respective cups and the number of emerged pupae of the respective cups was counted when all the pupae of no treatment group had emerged to calculate the inhibitory ratios of the emergence.
# The mortality and the inhibitory ratio of the emergence are shown according to the following three criteria: • mortality: A; 90% or more, • B; less than 90% to 10%, • C; less than 10%. • inhibitory: A; 90% or more, ratio of • emergence B; less than 90% to 80% • C; less than 80%.
row,Compound,mortality at 3.5 ppm [%]
1,"C#CC(C)(CCCc1cccc(Oc2ccccc2)c1)c1ccc(OCC)cc1 (stereo not drawn) [(3), 3-(4-ethoxyphenyl)-3-methyl-6-(3-phenoxyphenyl)-1-hexyne]",> 90

# Same assay, conditions: Culex pipiens, 24 h; 3.5 ppm; 20 last instar larvae; after one day; read-out: Mortality
row,Compound,mortality at 3.5 ppm [%]
1,C#CC(C)(CCCc1ccc(F)c(Oc2ccccc2)c1)c1ccc(CC)cc1 (stereo not drawn) [(39)],> 90

# Same assay, conditions: Culex pipiens; 3.5 ppm; counted when all pupae of no treatment group had emerged; read-out: Inhibitory ratio of emergence
row,Compound,pest or weed control at 3.5 ppm [%]
1,C#CC(C)(CCCc1ccc(F)c(Oc2ccccc2)c1)c1ccc(CC)cc1 (stereo not drawn) [(39)],> 90
2,"C#CC(C)(CCCc1cccc(Oc2ccccc2)c1)c1ccc(OCC)cc1 (stereo not drawn) [(3), 3-(4-ethoxyphenyl)-3-methyl-6-(3-phenoxyphenyl)-1-hexyne]",> 90

# Test system: not listed separately
# Assay: Test Example 9: fish toxicity test
# Format: in vivo, Cyprinida carpio
# Details: water; young carp; forty-eight hours; 25 ± 1°C; Probit method; read-out: LC50 value (ppm)
# Procedure: Twenty liters of each of the aqueous solutions containing the prescribed concentrations of the present compounds and comparative control one, and 10 young carp were liberated thereto. Forty-eight hours after, the dead and alive carp were examined to obtain LC50 value, (50% lethal concentration) according to Probit method. All the tests were carried out in thermostatic aquaria whose temperatures were kept at 25 ± 1°C.
# Tested fish: young Japanese carp (Cyprinida carpio) Average body length ± S.D.: 2.94 ± 0.19 cm. Average.body weight ± S.D.: 0.65 ± 0.13 g.
row,Compound,LC50 at 48 h [µg/mL]
1,"CCOC(=O)CC(SP(=S)(OC)OC)C(=O)OCC (stereo not drawn) [(D), Malathion, reference compound]",4.5
2,"C#CC(C)(CCCc1cccc(Oc2ccccc2)c1)c1ccc(OCC)cc1 (stereo not drawn) [(3), 3-(4-ethoxyphenyl)-3-methyl-6-(3-phenoxyphenyl)-1-hexyne]",> 10
